Earlier results on one substance are cited in paper PMC11372459 (Acta Pharmaceutica Sinica. B, 2024).

The subject of this data set is Gram-positive bacteria.

As for “Nisin (ITSISLCTPGCKTGALMGCNMKTATCHCSIHVSK; not fully specified; Lantibiotic nisin-A; UniProt P13068 24-57, looked up)”, the antibacterial spectrum result is reported as “specific activity against Gram-positive bacteria”.
